Measured values from PubChem BioAssay AID1996.
≈ marks a conversion by molar mass, not a printed value. Non-standard residues stand in square brackets, D forms with d. Residues, ends and D or L forms follow the SMILES beside them. *: point of attachment. Tic = O=C(O)[C@@H]1Cc2ccccc2CN1; Boc = CC(C)(C)OC(=O)*

Conditions: buffer; pH 7.4; 200.0 µM

| SMILES | solubility kinetic [µg/mL] |
| --- | --- |
| O=C(COC(=O)c1cc(=O)[nH]c2ccccc12)NC1CCCCC1 | 4.7 (≈ 14.3 µM) |
| O=C(NCCc1ccccc1F)c1cccc2cccnc12 | 31.4 (≈ 107 µM) |
| C=CCN1C(=O)C(CC(=O)O)SC1=Nc1cccc([N+](=O)[O-])c1 (centres undefined) | > 50.3 |
| CCC(C)C(=O)Nc1ccc(S(=O)(=O)N2CCCC2)cc1 (centres undefined) | 42.3 (≈ 136 µM) |
| Cc1cc(Cl)ccc1OCC(=O)Nc1ccc(CN2CCOCC2)cc1 | 41.3 (≈ 110 µM) |
| Cc1ccc(C(=O)Nc2nccc(C)n2)cc1 | 21.9 (≈ 96.4 µM) |
| O=C(c1cccc(O)c1)N1CCN(C(=O)C2CC2)CC1 | > 41.1 |
| OCCN(CC#CC(O)(c1ccccc1)c1ccccc1)CCO | > 48.8 |
| CC(C)CCN(C(=O)c1ccccn1)c1c(N)n(Cc2ccccc2)c(=O)[nH]c1=O | 56.9 (≈ 140 µM) |
| O=C1CSC(=Nc2ccc(Cl)cc2)N1Cc1cccnc1 | 8.3 (≈ 26.1 µM) |
| COc1ccccc1OCCCCN1CCCCC1 | 36.1 (≈ 137 µM) |
| NC(=O)c1ccc(NC(=O)COc2cccc3ccccc23)cc1 | 1.1 (≈ 3.43 µM) |
| CCC(C(=O)OC)n1cnc2scc(-c3ccc(C)cc3)c2c1=O (centres undefined) | 29.3 (≈ 85.6 µM) |
| CCOc1ccccc1C(=O)NCC(=O)N1CCC(C)CC1 | > 45.7 |
| Cn1c(SCc2ccc([N+](=O)[O-])cc2)nnc1-c1ccncc1 | > 49.1 |
| COc1cc(NC(=S)Nc2ccc(OC(F)F)cc2)cc(OC)c1 | 23.9 (≈ 67.4 µM) |
| OC1CCC(Nc2ncnc3sccc23)CC1 (centres undefined) | > 37.4 |
| CCOC(=O)CNC(=O)c1cnc(Nc2ccccc2OC)c2ccccc12 | 5.4 (≈ 14.2 µM) |
| O=C1NC2=C(C(=O)CCC2)C(c2ccccc2[N+](=O)[O-])N1 (centres undefined) | > 43.1 |
| O=C(O)CN1CCN(C(c2ccccc2)c2ccccc2)CC1 | > 46.6 |
| Cc1ccc(N2C(=O)[C@@H]3C(c4cccnc4)=NO[C@@H]3C2=O)c(C)c1 | > 48.2 |
| Cc1ccc(S(=O)(=O)NCCCC(=O)N2CCC(C)CC2)cc1 | > 50.8 |
| COc1ccccc1CNC(=O)C(C)Oc1ccccc1 (centres undefined) | > 42.8 |
| O=C(CCn1c(=O)oc2ccccc21)NCCC1=CCCCC1 | > 47.2 |

| SMILES | solubility kinetic [µg/mL] |
| --- | --- |
| CCOc1ccc(NC(=O)NC(=O)N(C(C)C)S(C)(=O)=O)cc1 | 43.1 (≈ 126 µM) |
| CNC(=O)Nc1ccccc1C(=O)Nc1ccccc1 | > 40.4 |
| CC(C)(C)OC(=O)N1Cc2ccccc2C[C@H]1C(=O)N1CCC[C@H]1C(=O)O (Boc-[Tic]-Pro-OH) | 49.9 (≈ 133 µM) |
| O=C(NCc1ccc2c(c1)OCO2)c1sccc1Br | 48.4 (≈ 142 µM) |
| COc1ccc(OCCC(=O)OCC(=O)NCCC2=CCCCC2)cc1 | > 54.2 |
| N[C@H](CSCc1ccccc1)C(=O)Nc1ccc([N+](=O)[O-])cc1 | 36.3 (≈ 110 µM) |
| CC(=O)c1ccc(N2CCN(C(=O)CCc3ccccc3)CC2)cc1 | > 50.5 |
| Cc1ccc(N(CC(=O)N2CCc3ccccc3C2)S(C)(=O)=O)cc1 | > 53.8 |
| C=CCc1ccccc1OCC(O)CNC1CCCC1.Cl (centres undefined) | > 46.8 |
| O=C(CSc1ncnc2sccc12)Nc1ccccc1 | 6.9 (≈ 22.9 µM) |
| COc1ccc2[nH]c(C(=O)Nc3ccc4c(c3)OCO4)cc2c1 | 1.1 (≈ 3.54 µM) |
| Nc1ccc(SCc2cccnc2)cc1 | 31 (≈ 143 µM) |
| CN(C)S(=O)(=O)c1ccc(C(=O)NC(=O)CSc2nncs2)cc1 | > 58 |
| C=C(C)CN1CCN(c2ccc(N3C(=O)CCCC3=O)cc2[N+](=O)[O-])CC1 | 54 (≈ 145 µM) |
| O=C(O)CCCC(=O)Nc1cc([N+](=O)[O-])ccc1O | 35.8 (≈ 133 µM) |
| CN(C)Cc1c(O)ccc2c1O/C(=C\C=C\c1ccccc1)C2=O | 46.8 (≈ 146 µM) |
| CCCCN(C(=O)C1CCCC1)C1CCS(=O)(=O)C1 (centres undefined) | > 43.1 |
| CCOc1ccc(S(=O)(=O)N2CCN(C(=O)C3CC3C)CC2)cc1 (centres undefined) | 51.7 (≈ 147 µM) |
| Cc1ccccc1CC(=O)Nc1ccc2c(C)cc(=O)oc2c1 | 2.1 (≈ 6.83 µM) |
| N#Cc1cc2c(=O)n3ccccc3nc2n(-c2ccc(Cl)cc2)c1=O | 1.4 (≈ 4.01 µM) |
| COc1cc(/C=C/c2[nH]c(=O)[nH]c(=O)c2[N+](=O)[O-])cc(OC)c1O | > 50.3 |
| N#C/C(=C\c1ccc2c(c1)OCO2)C(N)=S | 5.8 (≈ 25 µM) |
| CCCNC(=S)N1CCC(Cc2ccccc2)CC1 | 28.3 (≈ 102 µM) |
| COc1ccc(OCC(=O)Nc2ccc(N3CCC(C)CC3)cc2)cc1 | < 0.4 |

| SMILES | solubility kinetic [µg/mL] |
| --- | --- |
| Cc1ccc(C(=O)N2CCN(c3ccccn3)CC2)cc1[N+](=O)[O-] | 44.8 (≈ 137 µM) |
| CCOC(=O)c1cn(C2CC2)c2c(F)c(F)c(F)cc2c1=O | 42.7 (≈ 137 µM) |
| O=C(Nc1ccc2c(c1)OCO2)C1CC1(Cl)Cl (centres undefined) | > 41.1 |
| CC1(c2cccc(Br)c2)NC(=O)NC1=O (centres undefined) | > 40.4 |
| CC(=O)c1sc(-c2ccc(F)cc2F)nc1C | 0.8 (≈ 3.16 µM) |
| Cc1ccc2nc(-c3ccccc3)cc(C(=O)N3CC(C)OC(C)C3)c2c1 (centres undefined) | 49.1 (≈ 136 µM) |
| O=C(NCC(c1cccs1)N1CCOCC1)c1cccnc1 (centres undefined) | 43.6 (≈ 137 µM) |
| Cc1ccc(C(O)(CCN2CCCCC2)c2ccccc2)cc1.Cl (centres undefined) | > 51.9 |
| O=C(COC(=O)c1cccc(Cl)c1)NC(=O)NCc1ccccc1 | 3.6 (≈ 10.4 µM) |
| COc1ccc(C(C)=O)cc1COC(=O)CNC(=O)C1CCCCC1 | > 52.1 |
| CCCOC(=O)C1=C(C)N(C)C(=O)NC1c1cc2c(cc1[N+](=O)[O-])OCO2 (centres undefined) | 49.4 (≈ 131 µM) |
| COc1ccc(/C=C/C(=O)N2CCOCC2)cc1OC | > 41.6 |
| O=S(=O)(c1cc(F)ccc1F)N1CCN(c2ccccn2)CC1 | 18.9 (≈ 55.7 µM) |
| COc1cccc(CNC(=O)CCNC(=O)c2ccccc2OC)c1 | > 51.4 |
| COc1cccc(CN(C)S(=O)(=O)c2cccs2)c1 | 25.1 (≈ 84.4 µM) |
| C=CCn1c(O)c(C(CC)=NCc2ccco2)c(=O)[nH]c1=O | > 45.5 |
| O=C(COc1ccc(F)cc1)N1CCCc2ccccc21 | 33.6 (≈ 118 µM) |
| Cc1cc(Br)cc(Cl)c1OC(=O)c1cnccn1 | 47.4 (≈ 145 µM) |
| CCCN(CC1CCCO1)C(=O)CCc1nnc(-c2cc(C)on2)o1 (centres undefined) | > 52.3 |
| CC(C)=CC1C(C(=O)NCCc2ccccc2)C1(C)C (centres undefined) | 27.6 (≈ 102 µM) |
| O=C(O)CC1(CC(=O)Nc2cc3ccccc3cn2)CCCCC1 | 40.7 (≈ 125 µM) |
| O=S(=O)(c1ccc(Cl)nc1)N1CCCCC1 | > 39.1 |
| Cc1cccc(NC(=O)c2ccc3c(c2)CCN3S(C)(=O)=O)c1 | 37.5 (≈ 113 µM) |
| Cc1ccccc1C(=O)NNC(=O)c1cccn1C | > 38.6 |

| SMILES | solubility kinetic [µg/mL] |
| --- | --- |
| COc1ccc(C(=O)CNc2ccc3ccccc3c2)cc1 | 2.6 (≈ 8.92 µM) |
| CCCc1cc(=O)[nH]c(SCC(=O)NCCN2C(=O)CSC2=O)n1 | > 55.6 |
| CCN(CC)c1nc2c(c(=O)n(C)c(=O)n2C)n1CCCc1ccccc1 | 50.7 (≈ 137 µM) |
| Cn1c(SCC(=O)NC2CC2)nnc1-c1cccs1 | > 44.2 |
| CC1=CC(C)(C)[N+](C)(C)c2ccccc21.[I-] | 41 |
| CC(C)c1ccc(/C=C2\SC(N3CCOCC3)=NC2=O)cc1 | 29.9 (≈ 94.5 µM) |
| COc1ccc(NC(=O)C2CCCN(C(=O)Nc3ccc(F)cc3)C2)cc1 (centres undefined) | 12.4 (≈ 33.4 µM) |
| Brc1ccc(COn2ccnc2)cc1 | > 38 |
| N#Cc1cn(N2CCCCC2)c(=O)[nH]c1=O | > 33 |
| CCC(C)NC(=O)c1cc(-c2cccs2)nc2ccccc12 (centres undefined) | 2.4 (≈ 7.73 µM) |
| COc1cc(/C=C/c2noc(-c3ccccc3O)n2)ccc1OC(C)=O | < 0.4 |
| O=C(CCCc1ccccc1)NCCCc1ccccc1 | 33 (≈ 117 µM) |
| O=C(NC1CCCC1)c1cc2cc(Br)ccc2o1 | 6.1 (≈ 19.8 µM) |
| O=C1NC(c2ccc(O)cc2)Nc2ccccc21 (centres undefined) | 29.2 (≈ 122 µM) |
| Cc1ccc(OCC(O)CN2CCOCC2)cc1 (centres undefined) | 33.4 (≈ 133 µM) |
| CCC1C(C#N)=C(N)Oc2c1c(=O)oc1ccccc21 (centres undefined) | 8.6 (≈ 32.1 µM) |
| Cc1cc2ccccc2cc1CN1CCCCC1 | 9.6 (≈ 40.1 µM) |
| COc1cccc(C(=O)NC(C)CCc2ccccc2)c1 (centres undefined) | 36 (≈ 127 µM) |
| C[C@H](NC(=O)c1ccco1)C(=O)Nc1cc(S(=O)(=O)N2CCCC2)ccc1OCC(F)(F)F | > 73.4 |
| O=C(CC(c1ccccc1)c1ccco1)N1CCCCC1 (centres undefined) | > 42.5 |
| CC(=O)N1CCOCCOCCN(C(C)=O)CCOCC1 | > 45.4 |
| COCC(C)n1c(C)cc(C(=O)COC(=O)c2cccn2C)c1C (centres undefined) | > 49.9 |
| CCCCCn1c(N)c(C(=O)NCc2cccs2)c2nc3ccccc3nc21 | 0.9 (≈ 2.29 µM) |
| COc1ccc(OCC(=O)Nc2nccs2)cc1 | 39.1 (≈ 148 µM) |

| SMILES | solubility kinetic [µg/mL] |
| --- | --- |
| CC1Cc2ccccc2N1Cc1cccc(S(=O)(=O)N(C)C)c1 (centres undefined) | 9.4 (≈ 28.4 µM) |
| S=C(Nc1ccccc1)N1CCN(C/C=C/c2ccccc2)CC1 | > 50.6 |
| Fc1ccc(CNCCc2ccc3c(c2)OCO3)cc1 | 31.1 (≈ 114 µM) |
| O=C(C1=C(O)C(=O)N(CC2CCCO2)C1c1ccccc1)c1ccco1 (centres undefined) | 41.8 (≈ 118 µM) |
| Cc1noc(C)c1C(=O)OCC(=O)C12CC3CC(CC(C3)C1)C2 | < 0.7 |
| COc1ccc(CNC(=O)COC(=O)CCc2c[nH]c3ccccc23)cc1 | 44.4 (≈ 121 µM) |
| CCOC(=O)c1cnc2ccccc2c1NCc1ccco1 | 11.3 (≈ 38.1 µM) |
| CCCCc1ccc(NC(=O)N[C@@H](C)C(=O)O)cc1 | > 39.6 |
| CCOC(=O)/C(C#N)=C\c1cccnc1 | > 30.3 |
| CCOc1ccc(-c2c(C)n([O-])c3c([n+]2=O)CCCCC3)cc1 | > 47.2 |
| CCOc1ccc(C)cc1S(=O)(=O)NC1CCCCCC1 | 2.2 (≈ 7.06 µM) |
| O=C(COC(=O)/C=C/c1ccc(F)cc1)NC1CC1 | 28.8 (≈ 109 µM) |
| CC(=O)Nc1ccc(S(=O)(=O)Nc2nccs2)cc1 | > 44.6 |
| O=C(COC(=O)Cc1ccc(F)cc1)NC1CCCCC1 | > 44 |
| CCN(Cc1ccccc1)C(=O)Cc1c[nH]c2ccccc12 | 33.9 (≈ 116 µM) |
| Nc1ccccc1S(=O)(=O)C(F)F | 28.4 (≈ 137 µM) |
| O=C(OC1CCOC1=O)c1ccc(N2CCCC2)c([N+](=O)[O-])c1 (centres undefined) | > 48 |
| O=C(NCCN1CCOCC1)c1cc([N+](=O)[O-])cc([N+](=O)[O-])c1 | > 48.6 |
| O=C(N1CCOCC1)N1CCc2ccccc21 | 34.8 (≈ 150 µM) |
| CN(C(=O)CSCC(=O)Nc1ccc(Cl)cc1)C1CCCCC1 | 5.9 (≈ 16.6 µM) |
| COc1ccc(NC(=O)COC(=O)c2ccc3ccccc3n2)c(OC)c1 | 3 (≈ 8.19 µM) |
| CN(C(=O)Cc1c(C(=O)O)n(C)c2ccccc12)c1ccc(Cl)cc1 | > 53.5 |
| O=C(OCC(=O)c1ccc(Cl)cc1Cl)c1ccccn1 | > 46.5 |
